Experiment [1] addresses T1, His tagged full-length PTP1B protein (Homo sapiens, UniProt P18031).
T1 construct: made in house
T1 sequence (P18031 with tags, fused parts or gaps): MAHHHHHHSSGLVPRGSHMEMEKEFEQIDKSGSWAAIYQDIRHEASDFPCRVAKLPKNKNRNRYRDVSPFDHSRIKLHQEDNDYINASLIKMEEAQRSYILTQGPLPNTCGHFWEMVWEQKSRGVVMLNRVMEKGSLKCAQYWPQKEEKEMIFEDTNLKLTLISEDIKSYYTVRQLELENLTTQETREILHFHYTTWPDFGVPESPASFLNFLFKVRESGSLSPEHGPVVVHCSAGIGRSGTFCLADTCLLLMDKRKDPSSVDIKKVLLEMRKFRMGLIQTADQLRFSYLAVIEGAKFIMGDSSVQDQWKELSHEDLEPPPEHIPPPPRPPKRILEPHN
Nature of the experiment: Mobility Shift Assay (MSA) used to determine potency of PTP1B inhibitors. Format: biochemical. The note with it: Table 2. On the procedure:
The enzymatic assay used to determine activity is a mobility shift assay using a LabChip EZ Reader by Caliper Life Sciences. The enzymatic reaction was carried out in assay buffer (50 mM HEPES pH 7.5, 1 mM EGTA, 10 mM EDTA, 0.01% Tween® 20, and 2 mM DTT). […] The enzyme (at 0.5 nM) was incubated with compound for 10 minutes at room temperature. […] The % inhibition was then used to calculate the IC50 values.

Experiment [2] addresses T2, His tagged PTPN2 (TC45) protein (Homo sapiens, UniProt P17706).
T2 construct: made in house
T2 sequence (P17706 with tags, fused parts or gaps isoform P17706-2): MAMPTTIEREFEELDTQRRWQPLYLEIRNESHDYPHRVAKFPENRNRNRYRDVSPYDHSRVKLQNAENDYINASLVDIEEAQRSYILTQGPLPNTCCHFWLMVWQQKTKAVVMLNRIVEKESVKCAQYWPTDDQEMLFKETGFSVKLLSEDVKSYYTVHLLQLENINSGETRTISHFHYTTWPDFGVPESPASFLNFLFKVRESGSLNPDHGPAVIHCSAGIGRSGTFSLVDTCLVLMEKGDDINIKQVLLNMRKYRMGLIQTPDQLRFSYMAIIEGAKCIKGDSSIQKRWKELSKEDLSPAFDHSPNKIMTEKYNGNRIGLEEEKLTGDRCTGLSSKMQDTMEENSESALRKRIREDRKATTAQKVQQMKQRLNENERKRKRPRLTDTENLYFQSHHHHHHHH
The experiment can be described thus: Mobility Shift Assay used to determine potency of PTPN2 inhibitors. The format is biochemical. The settings on record: Table 2; read-out: PTPN2 MSA IC50. The protocol: Example 292: Mobility Shift Assay used to determine potency of PTPN2 inhibitors
Compound activity was determined using in house His tagged PTPN2 (TC45) protein (SEQ ID NO: 1) in an in vitro enzymatic reaction. The enzymatic assay used to determine activity was a mobility shift assay using a LabChip EZ Reader by Caliper Life Sciences. The enzymatic reaction was carried out in assay buffer (50 mM HEPES pH 7.5, 1 mM EGTA, 10 mM EDTA, 0.01% Tween® 20, and 2 mM DTT). The compounds were dispensed on a white 384 well ProxiPlate™ (PerkinElmer Catalog#6008289) plate using the Labcyte Echo at varying concentrations (12 point, 1:3 dilution). The enzyme (at 0.5 nM) was incubated with compound for 10 minutes at room temperature. Then the substrate (phosphorylated insulin receptor probe sequence: ((OG488)—{NH—CH2—CH2—O—CH2—CH2—O—CH2—CO)—T—R—D—I—(PY)—E—T—D—Y—Y—R—K—K—NH2) (SEQ ID NO: 2) was added at 2 μM to the plates and incubated for another 10 minutes at room temperature. Finally, a quench solution (water and 4-bromo-3-(2-oxo-2-propoxyethoxy)-5-(3-{[1-(phenylmethanesulfonyl)piperidin-4-yl]amino}phenyl)thiophene-2-carboxylic acid) was added to the plates, which were then run on the EZ Reader (excitation 488 nm, emission 530 nm) to measure % conversion (the amount of phosphorylated substrate which was de-phosphorylated by PTPN2). […] The % inhibition was then used to calculate the IC50 values.

The IC50 is the concentration that inhibits the measured activity by half. As to `C[C@@](O)(CC#N)CCOc1ccc2cc(O)c(N3CC(=O)NS3(=O)=O)c(F)c2c1` [Compound 346, (3R)-5-{[8-fluoro-6-hydroxy-7-(1,1,4-trioxo-1λ^6,2,5-thiadiazolidin-2-yl)naphthalen-2-yl]oxy}-3-hydroxy-3-methylpentanenitrile], the IC50 in experiment [1] and in experiment [2] was less than 1 nM throughout.
For `Nc1ccc2c(F)c(N3CC(=O)NS3(=O)=O)c(O)cc2c1` [Compound 329, 5-(6-amino-1-fluoro-3-hydroxynaphthalen-2-yl)-1λ^6,2,5-thiadiazolidine-1,1,3-trione], the IC50 in experiment [1] fell in the range of 10 to 100 nM; in experiment [2], 1 to 10 nM.
For `O=C1CN(c2c(O)cc3cc(O)c(OCCC4CC4)cc3c2F)S(=O)(=O)N1` [Compound 356, 5-[7-(2-cyclopropylethoxy)-1-fluoro-3,6-dihydroxynaphthalen-2-yl]-1λ^6,2,5-thiadiazolidine-1,1,3-trione] the same measures were less than 1 nM and less than 1 nM.
Regarding `O=C1CN(c2c(O)cc3cc(O)c(OCCC4CCOC4)cc3c2F)S(=O)(=O)N1` (centres unmarked) [Compound 367, 5-{1-fluoro-3,6-dihydroxy-7-[2-(oxolan-3-yl)ethoxy]naphthalen-2-yl}-1λ^6,2,5-thiadiazolidine-1,1,3-trione], the IC50 in experiment [1] and in experiment [2] was less than 1 nM in each case.
As for `C[C@](O)(CC#N)CCOc1ccc2cc(O)c(N3CC(=O)NS3(=O)=O)c(F)c2c1` [Compound 347, (3S)-5-{[8-fluoro-6-hydroxy-7-(1,1,4-trioxo-1λ^6,2,5-thiadiazolidin-2-yl)naphthalen-2-yl]oxy}-3-hydroxy-3-methylpentanenitrile], the IC50 is 1 to 10 nM in experiment [1] and less than 1 nM in experiment [2].
Turning to `O=C1CN(c2c(O)cc3cc(NCCCC(F)F)ccc3c2F)S(=O)(=O)N1` [Compound 330, 5-{6-[(4,4-difluorobutyl)amino]-1-fluoro-3-hydroxynaphthalen-2-y}-1λ^6,2,5-thiadiazolidine-1,1,3-trione], the IC50 in experiment [1] and in experiment [2] was 10 to 100 nM throughout.
For `NCCOc1ccc2c(F)c(N3CC(=O)NS3(=O)=O)c(O)cc2c1` [Compound 337, 5-[6-(2-aminoethoxy)-1-fluoro-3-hydroxynaphthalen-2-yl]-1λ^6,2,5-thiadiazolidine-1,1,3-trione], the IC50 in experiment [1] and in experiment [2] was 10 to 100 nM each time.
Consider `O=C1CN(c2c(O)cc3cc(NCC4CC4)ccc3c2F)S(=O)(=O)N1` [Compound 331, 5-{6-[(cyclopropylmethyl)amino]-1-fluoro-3-hydroxynaphthalen-2-yl}-1λ^6,2,5-thiadiazolidine-1,1,3-trione], for which the IC50 in experiment [1] and in experiment [2] was 10 to 100 nM in each case.
Consider `CCCCOc1cc2c(F)c(N3CC(=O)NS3(=O)=O)c(O)cc2cc1O` [Compound 363, 5-(7-butoxy-1-fluoro-3,6-dihydroxynaphthalen-2-yl)-1λ^6,2,5-thiadiazolidine-1,1,3-trione], for which the IC50 in experiment [1] and in experiment [2] was less than 1 nM throughout.
As to `CC(C)(C)OC(=O)NCCOc1ccc2c(F)c(N3CC(=O)NS3(=O)=O)c(O)cc2c1` [Compound 336, tert-butyl (2-{[5-fluoro-7-hydroxy-6-(1,1,4-trioxo-1λ^6,2,5-thiadiazolidin-2-yl)naphthalen-2-yl]oxy}ethyl)carbamate], the IC50 in experiment [1] and in experiment [2] was 10 to 100 nM each time.
With `O=C1CN(c2c(O)cc3ccc(OCCC4CCCC4)cc3c2F)S(=O)(=O)N1` [Compound 351, 5-[7-(2-cyclopentylethoxy)-1-fluoro-3-hydroxynaphthalen-2-yl]-1λ^6,2,5-thiadiazolidine-1,1,3-trione], the IC50 in experiment [1] and in experiment [2] was less than 1 nM each time.
With `O=C1CN(c2c(O)cc3ccc(OCCC4CCOC4)cc3c2F)S(=O)(=O)N1` (centres unmarked) [Compound 350, 5-{1-fluoro-3-hydroxy-7-[2-(oxolan-3-yl)ethoxy]naphthalen-2-yl}-1λ^6,2,5-thiadiazolidine-1,1,3-trione], the IC50 in experiment [1] and in experiment [2] was less than 1 nM each time.
With `O=C1CN(c2c(O)cc3cc(O)c(OCCC4CCCO4)cc3c2F)S(=O)(=O)N1` (centres unmarked) [Compound 360, 5-{1-fluoro-3,6-dihydroxy-7-[2-(oxolan-2-yl)ethoxy]naphthalen-2-yl}-1λ^6,2,5-thiadiazolidine-1,1,3-trione], the IC50 in experiment [1] and in experiment [2] was less than 1 nM throughout.
With `COc1cc2c(F)c(N3CC(=O)NS3(=O)=O)c(O)cc2cc1O` [Compound 357, 5-(1-fluoro-3,6-dihydroxy-7-methoxynaphthalen-2-yl)-1λ^6,2,5-thiadiazolidine-1,1,3-trione], the IC50 in experiment [1] and in experiment [2] was 1 to 10 nM throughout.
For the compound `O=C1CN(c2c(O)cc3cc(O)ccc3c2F)S(=O)(=O)N1` [Compound 328, 5-(1-fluoro-3,6-dihydroxynaphthalen-2-yl)-1λ^6,2,5-thiadiazolidine-1,1,3-trione], the IC50 is 1 to 10 nM in experiment [1] and less than 1 nM in experiment [2].
In the case of `CC(C)(C#N)CCOc1cc2c(F)c(N3CC(=O)NS3(=O)=O)c(O)cc2cc1O` [Compound 366, 4-{[8-fluoro-3,6-dihydroxy-7-(1,1,4-trioxo-1λ^6,2,5-thiadiazolidin-2-yl)naphthalen-2-yl]oxy}-2,2-dimethylbutanenitrile], the IC50 in experiment [1] and in experiment [2] was less than 1 nM throughout.
`CC(O)(CO)CCOc1ccc2cc(O)c(N3CC(=O)NS3(=O)=O)c(F)c2c1` (centres unmarked) [Compound 323, 5-[7-(3,4-dihydroxy-3-methylbutoxy)-1-fluoro-3-hydroxynaphthalen-2-yl]-1λ^6,2,5-thiadiazolidine-1,1,3-trione]: the half-maximal inhibitory concentration (IC50) in experiment [1] and in experiment [2] was less than 1 nM each time.
As to `C[C@@H](O)C[C@@H](O)COc1ccc2cc(O)c(N3CC(=O)NS3(=O)=O)c(F)c2c1` (racemic) [Compound 325, 5-(7-{[rac-(2R,4R)-2,4-dihydroxypentyl]oxy}-1-fluoro-3-hydroxynaphthalen-2-yl)-1λ^6,2,5-thiadiazolidine-1,1,3-trione], the IC50 in experiment [1] and in experiment [2] was 1 to 10 nM each time.
As for `O=C1CN(c2c(O)cc3ccc(NCCCC(F)F)cc3c2F)S(=O)(=O)N1` [Compound 324, 5-{7-[(4,4-difluorobutyl)amino]-1-fluoro-3-hydroxynaphthalen-2-y}-1λ^6,2,5-thiadiazolidine-1,1,3-trione], the IC50 in experiment [1] and in experiment [2] was less than 1 nM each time.
Consider `CC(C)(CO)CCOc1ccc2cc(O)c(N3CC(=O)NS3(=O)=O)c(F)c2c1` [Compound 342, 5-[1-fluoro-3-hydroxy-7-(4-hydroxy-3,3-dimethylbutoxy)naphthalen-2-yl]-1λ^6,2,5-thiadiazolidine-1,1,3-trione], for which the IC50 in experiment [1] and in experiment [2] was less than 1 nM in each case.
For `N#CC1(COc2ccc3cc(O)c(N4CC(=O)NS4(=O)=O)c(F)c3c2)CC1` [Compound 199, 1-({[8-fluoro-6-hydroxy-7-(1,1,4-trioxo-1λ^6,2,5-thiadiazolidin-2-yl)naphthalen-2-yl]oxy}methyl)cyclopropane-1-carbonitrile], the IC50 in experiment [1] was greater than 100 nM; in experiment [2], 1 to 10 nM.
On to `CC(C)CCNc1ccc2c(F)c(N3CC(=O)NS3(=O)=O)c(O)cc2c1` [Compound 332, 5-{1-fluoro-3-hydroxy-6-[(3-methylbutyl)amino]naphthalen-2-yl}-1λ^6,2,5-thiadiazolidine-1,1,3-trione], for which the IC50 in experiment [1] and in experiment [2] was 10 to 100 nM in each case.

(Values after US20230019236A1, “PROTEIN TYROSINE PHOSPHATASE INHIBITORS AND METHODS OF USE THEREOF” (Calico Life Sciences LLC, priority 2019, published 2023).)
